Legend:
[1] = system: Arabidopsis thaliana Col. O and La-er seedlings; test: Sensitivity to trehalose of Arabidopsis thaliana seedlings (Col.O and La-er) on agar medium; format: in vivo; settings: 100 mM trehalose in 0.8% agar, half-strength MS medium, pH 5.7; compared with 100 mM mannitol control
Method: Seeds were sterilized using the gas-phase protocol of Clough and Bent (1998) (Clough S. J., Bent A. F., Plant J. 16(6): 735-743, 199.8) in Eppendorf tubes. The sterilized sees were then resuspended in sterile water and arranged on 0.8% w/v agar medium containing half-strength Murashigue and Skoog medium (MS medium; Murashigue T, Skoog F, Physiol. Plant. 15: 473-497, 1977), vitamins and MES buffer (pH 5.7), supplemented with mannitol or trehalose in a final concentration of 100 mM. […] The upper row of plants are the Arabidopsis thaliana Landsberg erecta (La-er), and the lower row of plants are the Arabidopsis thaliana Colombia (Col.O).

[2] = system: non-transformed Arabidopsis thaliana Col.O seedlings; test: Selection of transgenic Arabidopsis seedlings on trehalose medium; format: in vivo; settings: 100 mM trehalose, 1/2 MS agar, after 12 days at 22° C.
Method: Arabidopsis thaliana Col.O plants were transformed with Aarobacterium with the binary plasmid as described in Example 2C, via the “floral dip” protocol (Clough and Bent, supra). The obtained dry seeds were sterilized and sown on 0.8% w/v solid agar medium having therein half-strength MS-salts (½ MS-salts), vitamins and MES buffer pH 5.7, supplemented with trehalose in a final concentration of 100 mM. The dishes were incubated for 3 days at 4° C. (stratification), whereafter a drop of ethanol was applied to the inside of the cover and dishes were transferred to 22° C. […] The transformed resistant seedlings are green, have long roots and primary leaves. […] In moist conditions the cotyledons become pale.

OC[C@H]1O[C@H](O[C@H]2O[C@H](CO)[C@@H](O)[C@H](O)[C@H]2O)[C@H](O)[C@@H](O)[C@@H]1O [trehalose, Trehalose]
development of plants from seeds (root system) [1]: lesser development | phenotype of non-transformed, sensitive seedlings [2]: accumulate anthocyanins, develop no primary leaves | root length of non-transformed, sensitive seedlings [2]: ≤ 3 mm

Source: patent US7449290B2, “Method for selecting genetically transformed cells” (Expressive Research B.V., priority 2001, dated 2008)
